Key:
[1] = tested on: apolipoprotein B (APOB-100); test: Secreted APOB ELISA in human iPSC-derived hepatocyte-like cells; format: cell-based
Procedure: (§1) D. Human iPSC-derived hepatocytes were treated with DL-1 with concentrations ranging from 0.0325 to 12 or 48 μg/mL for 24 hours. Pre-drug and Post-drug medium were collected for analysis. Albumin and APOB levels were determined via ELISA assay. All secreted proteins were compared to non-treated cells. […] Data are shown as mean±SEM of four replicates (n=4); * p<0.01.
E. Human iPSC-derived hepatocytes were treated with 2 μg/mL of DL-1 from 8 to 48 hours. Albumin, APOPA, and APOB level in the culture medium were determined via ELISA. All secreted proteins were compared to non-treated cells. In FIG. 5, accumulated APOB in the medium from different time-point was measured and normalized to albumin level. […]
F. Twenty-one compounds that are structurally similar to DL-1 were tested with the concentration of 2 μg/mL in human iPSC-derived hepatocytes for 24 hours. Secreted APOB levels were determined and compared to the DMSO-treated group. […] Data is shown as mean±SEM of replicates (n=8) and as quantification value of each derivative. […]
Differentiated human hepatocyte-like cells were treated with representative compounds of the invention (2 μg/mL) or equivalent amount of DMSO (0.5%) as the placebo group for 24 hours. […] The secreted level of apolipoprotein B (APOB-100), the core protein of LDL-C, were determined via enzyme-linked immunosorbent assay (ELISA). […]

Albumin = test: Secreted albumin ELISA in iPSC-derived hepatocytes; format: cell-based, human
Procedure: as §1
E. Human iPSC-derived hepatocytes were treated with 2 μg/mL of DL-1 from 8 to 48 hours. Albumin, APOPA, and APOB level in the culture medium were determined via ELISA. All secreted proteins were compared to non-treated cells. In FIG. 5, accumulated APOB in the medium from different time-point was measured and normalized to albumin level. In FIG. 6, APOA, APOB, and albumin in the medium at the indicated times were compared to control. […] Data are shown as mean±SEM of four replicates (n=4); *p<0.05, **p<0.01.
Human APOB level was determined via a commercial sandwich ELISA (3715-1H-6; Mabtech), and the signal was detected using the HRP-TMB system. The concentration of APOB was determined using a standard curve with four parameters logistic regression model. Human APOA level was determined via a commercial sandwich ELISA (3710-1H-6; Mabtech) following manufacture instruction. Human albumin levels in cell culture supernatants were measured by commercial ELISA (E88-129; Bethyl Laboratories) following manufactural instructions.

[2] = 0.0325 to 12 or 48 μg/mL, 24 hours

Sc1nc(S)nc(Nc2ccc(Nc3ccccc3)cc2)n1 (racemic) [DL-1, 6-{[4-(phenylamino)phenyl]amino}-1,3,5-triazine-2,4-dithiol]
APOB level in culture medium, time course ([1]; 2 μg/mL, 8 to 48 hours): reduces APOB level in a time-dependent manner | APOB secretion level, dose-response [1, 2]: reduces APOB secretion level in a dose-response manner | albumin level in culture medium, time course (Albumin; 2 μg/mL, 8 to 48 hours): without affecting albumin and APOA level | albumin level, dose-response (Albumin; [2]): without affecting albumin
